Source: paper PMC2680390 (Journal of medicinal chemistry, 2008)

Columns and labels:
[1] = target: T1, ERα/SRC-3 coactivator interaction (Homo sapiens, UniProt P03372, C381S/C530S); test: TR-FRET CBI assay, ERα-LBD / SRC-3-NRD; format: binding; conditions: 1 μM estradiol, fluorescein-SRC-3-NRD 50 nM; for Ki: TR-FRET Ki ERα
T1 sequence (P03372 311-547 C381S/C530S limits assumed): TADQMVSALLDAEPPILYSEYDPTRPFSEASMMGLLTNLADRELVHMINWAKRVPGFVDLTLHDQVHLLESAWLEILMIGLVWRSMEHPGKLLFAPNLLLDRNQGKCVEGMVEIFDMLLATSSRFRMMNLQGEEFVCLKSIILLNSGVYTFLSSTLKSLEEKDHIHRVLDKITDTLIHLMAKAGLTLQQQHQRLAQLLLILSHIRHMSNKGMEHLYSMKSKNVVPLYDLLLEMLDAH

[2] = target: ERβ (Homo sapiens, UniProt Q92731); test: Preliminary cell-based reporter gene systems, ERβ; conditions: preliminary studies
[3] = test system: HEC-1 cells; test: CellTiter 96 AQueous One Solution Cell Proliferation Assay; format: cell-based; conditions: doses up to 20 μM
[4] = target: ERβ/SRC-3 coactivator interaction (Homo sapiens, UniProt Q92731); test: TR-FRET CBI assay, ERβ-LBD / SRC-3-NRD; format: binding; conditions: for TR-FRET Ki ERβ: estradiol present, fluorescein-SRC-3-NRD
[5] = target: ERα coactivator binding; conditions: read-out: Ki by fluorescence polarization assay; FP assay; cited from earlier work
[6] = target: T2, ERβ ligand-binding domain (site-specifically labeled terbium/streptavidin-biotin/ER-LBD construct) (site-specifically labeled with biotin; bound to streptavidin-terbium in the assay); test: FRET or BRET
T2 chain: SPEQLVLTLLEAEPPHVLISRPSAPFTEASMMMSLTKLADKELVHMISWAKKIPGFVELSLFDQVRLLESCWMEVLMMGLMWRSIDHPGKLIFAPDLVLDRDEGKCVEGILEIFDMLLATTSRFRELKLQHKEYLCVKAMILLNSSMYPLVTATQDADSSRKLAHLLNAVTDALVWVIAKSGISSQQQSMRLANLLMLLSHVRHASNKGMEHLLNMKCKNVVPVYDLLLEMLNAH

ERβ, sequence (Q92731 whole entry): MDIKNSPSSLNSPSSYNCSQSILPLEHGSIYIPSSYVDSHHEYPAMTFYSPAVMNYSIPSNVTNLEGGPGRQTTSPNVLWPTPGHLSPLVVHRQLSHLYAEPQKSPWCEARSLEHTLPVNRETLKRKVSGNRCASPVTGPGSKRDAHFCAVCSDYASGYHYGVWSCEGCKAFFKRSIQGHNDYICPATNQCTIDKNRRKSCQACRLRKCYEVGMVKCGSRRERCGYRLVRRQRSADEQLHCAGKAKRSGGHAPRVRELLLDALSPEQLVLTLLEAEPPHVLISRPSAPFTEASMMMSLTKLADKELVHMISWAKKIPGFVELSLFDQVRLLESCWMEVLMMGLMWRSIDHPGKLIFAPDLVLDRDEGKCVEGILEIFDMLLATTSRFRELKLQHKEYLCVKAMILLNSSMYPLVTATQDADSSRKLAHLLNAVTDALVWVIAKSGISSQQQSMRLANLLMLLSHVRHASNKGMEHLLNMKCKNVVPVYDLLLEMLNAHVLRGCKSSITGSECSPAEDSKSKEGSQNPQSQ

For `CC(C)CCc1cc(NCC(C)C)nc(S(=O)(=O)CC(C)C)n1` [Compound 39, Isobutyl-[6-(3-methyl-butyl)-2-(2-methyl-propane-1-sulfonyl)-pyrimidin-4-yl]-amine], the “TR-FRET Ki ERα” value [1] was “None of these O- or S-containing pyrimidines showed any inhibition”.

In the case of `CC(C)CNc1cc(CCc2ccccc2)nc(NCC(C)C)n1` [Compound 3a], the “Mechanism-based inhibition of ERβ in cell-based reporter gene systems” value (shortened to “Mechanism-based inhibition of ERβ”) [2] is reported as “no mechanism-based inhibition of ERβ” and the Viable cell counts [3] is reported as “decreased significantly only at the highest doses of compound (20 μM)”.

With `CC(C)CCc1cc(NCC(C)C)nc(OCC(C)C)n1` [Compound 37a, [2-Isobutoxy-6-(3-methyl-butyl)-pyrimidin-4-yl]-isobutylamine] the “TR-FRET Ki ERα” value [1] was “None of these O- or S-containing pyrimidines showed any inhibition” and the Viable cell counts [3] was “decreased significantly only at the highest doses of compound (20 μM)”.

With `CC(C)CNc1nc(/C=C/c2ccccc2)cc(N(Cc2ccccc2)C(=O)OC(C)(C)C)n1` [Compound 8b] the “TR-FRET Ki ERα” value [1] was “no activity for ERα” and the “TR-FRET Ki ERβ” value [4] was “very modest affinity for ERβ”.

In the case of `CC(C)CNc1cc(NCc2ccccc2)nc(NCC(C)C)n1` [Compound 27a], the Ki [1] is reported as 7.3 µM and the “Mechanism-based inhibition of ERβ” value [2] is reported as “no mechanism-based inhibition of ERβ”.

For `CC(C)CNc1ccnc(NCC(C)C)n1` [Compound 27d, 2,4-diisobutylamino-pyrimidine], the “TR-FRET Ki ERα” value [1] was “complete loss of activity”, the Ki [1] was greater than 1000 µM and the Ki [4] was greater than 1000 µM.

In the case of `CC(C)CNc1cc(OCC(C)C)nc(NCC(C)C)n1` [Compound 27b], the “TR-FRET Ki ERα” value [1] is reported as “lack of activity”.

With `CC(C)CCc1cc(NCC(C)C)nc(N(C)CC(C)C)n1` [Compound 31a] the “TR-FRET Ki ERα” value [1] was “activity is nearly fully restored”.

In the case of `CC(C)CNc1cc(Cl)nc(NCC(C)C)n1` [Compound 26, 2,4-diisobutylamino-6-chloropyrimidine], the “TR-FRET Ki ERα” value [1] is reported as “complete loss of activity”, the Ki [1] is reported as greater than 1000 µM and the Ki [4] is reported as greater than 1000 µM.

For `CC(C)CNc1cc(/C=C/c2ccccc2)nc(NCC(C)C)n1` [Compound 2a, N,N'-diisobutyl-(6-styryl-pyrimidin-2,4-yl)-diamine], the Ki [4] was 242 µM and the “TR-FRET Ki ERβ” value [4] was “very modest affinity for ERβ”.

With `CC(C)CCc1cc(NCC(C)C)nc(NCc2ccccc2)n1` [Compound 18b] the Viable cell counts [3] was “decreased significantly only at the highest doses of compound (20 μM)”.

For `CC(C)CNc1cc(CCc2ccccc2)nc(N(C)CC(C)C)n1` [Compound 32, N^2-methyl-N^2,N^4-diisobutyl-(6-phenethyl-pyrimidin-2,4-yl)-diamine], the “TR-FRET Ki ERα” value [1] was “inactive”.

In the case of `CC(C)CCc1cc(NCC(C)C)nc(NCC(C)C)n1` [Compound 13b, 2,4-diisobutylamino-6-isoamylpyrimidine], the Ki [5] is listed as 29 µM and the “Mechanism-based inhibition of ERβ” value [2] is listed as “no mechanism-based inhibition of ERβ”.

For `CC(C)CCc1cc(N(C)CC(C)C)nc(NCC(C)C)n1` [Compound 34a], the “TR-FRET Ki ERα” value [1] was “no binding is observed”.

In the case of `CC(C)CNc1cc(NCC(C)C)nc(NCC(C)C)n1` [Compound 25a, N,N',N''-Triisobutyl-pyrimidine-2,4,6-triamine], the “TR-FRET Ki ERβ” value [4] is reported as “very modest affinity for ERβ” and the Viable cell counts [3] is reported as “decreased significantly only at the highest doses of compound (20 μM)”.

With `CC(C)CNc1cc(/C=C/c2ccccc2)nc(NCc2ccccc2)n1` [Compound 10a, N^2-Benzyl-N^4-isobutyl-6-styryl-pyrimidine-2,4-diamine] the Viable cell counts [3] was “decreased significantly only at the highest doses of compound (20 μM)”.

With `CC(C)CNc1cc(CCc2cccc3ccccc23)nc(N(C)CC(C)C)n1` [Compound 31c] the “TR-FRET Ki ERα” value [1] was “inactive”.

With `CC(C)CNc1cc(S(=O)(=O)CC(C)C)nc(NCC(C)C)n1` [Compound 28] the “TR-FRET Ki ERα” value [1] was “lack of activity”.

`CC(C)CSc1cc(SCC(C)C)nc(SCC(C)C)n1` [Compound 25e, 2,4,6-Tris-isobutylsulfanyl-pyrimidine] gave a Ki [1] of 120 µM.

B1: unlabeled peptide containing the NR Box II (LXXLL motif) of SRC-1 (peptide)
chain: LTERHKILHRLLQEGSPSD
With B1 the Ki [6] was 0.066 µM.
